In patent publication US20150374646A1, “TREATMENT OF CANCER AND OTHER CONDITIONS USING A TRANSCRIPTION FACTOR MODULATOR” (C & C BIOPHARMA, LLC, priority 2013, published 2015):

Tests used:
786-0 = assay: Cancer cell line growth inhibition, CellTiter-Glo (Example 3); format: cell-based; settings: Homo sapiens, Renal, 72 hours, read-out: growth inhibition of various human cancer cell lines
Description: (§1) YT30 was tested for growth inhibition against 67 human cancer cell lines derived from diverse tissues including the National Cancer Institute human cancer cell lines (NCI-60). […] Cells in different wells were treated with various concentrations of YT30, YT86, YT88, or YT128. […] Cell viabilities were determined by the CellTiter-Glo Luminescence Cell Viability assay kit (Promega Corporation, Madison, Wis.) according to manufacturer's protocol.

A498 = assay: as above; format: cell-based; settings: Homo sapiens, Renal, 72 hours, read-out: growth inhibition of various human cancer cell lines
Description: as §1

A549 = assay: as above; format: cell-based; settings: Homo sapiens, Lung, 72 hours, read-out: growth inhibition of various human cancer cell lines
Description: as §1

BT-549 = assay: as above; format: cell-based; settings: Homo sapiens, Breast, 72 hours, read-out: growth inhibition of various human cancer cell lines
Description: as §1

CCRF-CEM = assay: as above; format: cell-based; settings: Homo sapiens, Leukemia, 72 hours, read-out: growth inhibition of various human cancer cell lines
Description: as §1

Caski = assay: as above; format: cell-based; settings: Homo sapiens, Ca-Ski, Cervical, 72 hours, read-out: growth inhibition of various human cancer cell lines
Description: as §1

HL60 [1] = assay: as above; format: cell-based; settings: Homo sapiens, HL-60, Leukemia, 72 hours, read-out: growth inhibition of various human cancer cell lines
Description: as §1

HS 578T = assay: as above; format: cell-based; settings: Homo sapiens, Breast, 72 hours, read-out: growth inhibition of various human cancer cell lines
Description: as §1

HeLa = assay: as above; format: cell-based; settings: Homo sapiens, Cervical, 72 hours, read-out: growth inhibition of various human cancer cell lines
Description: as §1

K562 = assay: as above; format: cell-based; settings: Homo sapiens, Leukemia, 72 hours, read-out: growth inhibition of various human cancer cell lines
Description: as §1

MCF7 = assay: as above; format: cell-based; settings: Homo sapiens, Breast, MCF-7, 72 hours, read-out: growth inhibition of various human cancer cell lines
Description: as §1

MDA-MB-435 = assay: as above; format: cell-based; settings: Homo sapiens, Breast, 72 hours, read-out: growth inhibition of various human cancer cell lines
Description: as §1

MDA-MB-468 = assay: as above; format: cell-based; settings: Homo sapiens, Breast, 72 hours, read-out: growth inhibition of various human cancer cell lines
Description: as §1

MDA-MB231 = assay: as above; format: cell-based; settings: Homo sapiens; Breast, MDA-MB-231; 72 hours; read-out: growth inhibition of various human cancer cell lines
Description: as §1

MOLT-4 = assay: as above; format: cell-based; settings: Homo sapiens, Leukemia, 72 hours, read-out: growth inhibition of various human cancer cell lines
Description: as §1

NCI/ADR-RES = assay: as above; format: cell-based; settings: Homo sapiens, Breast, 72 hours, read-out: growth inhibition of various human cancer cell lines
Description: as §1

OVCAR-3 = assay: as above; format: cell-based; settings: Homo sapiens, Ovarian, 72 hours, read-out: growth inhibition of various human cancer cell lines
Description: as §1

OVCAR-4 = assay: as above; format: cell-based; settings: Homo sapiens, Ovarian, 72 hours, read-out: growth inhibition of various human cancer cell lines
Description: as §1

OVCAR-5 = assay: as above; format: cell-based; settings: Homo sapiens, Ovarian, 72 hours, read-out: growth inhibition of various human cancer cell lines
Description: as §1

SF-268 = assay: as above; format: cell-based; settings: Homo sapiens, CNS, 72 hours, read-out: growth inhibition of various human cancer cell lines
Description: as §1

SF-295 = assay: as above; format: cell-based; settings: Homo sapiens, CNS, 72 hours, read-out: growth inhibition of various human cancer cell lines
Description: as §1

SF-539 = assay: as above; format: cell-based; settings: Homo sapiens, CNS, 72 hours, read-out: growth inhibition of various human cancer cell lines
Description: as §1

SN12C = assay: as above; format: cell-based; settings: Homo sapiens, Renal, 72 hours, read-out: growth inhibition of various human cancer cell lines
Description: as §1

SNB-19 = assay: as above; format: cell-based; settings: Homo sapiens, CNS, 72 hours, read-out: growth inhibition of various human cancer cell lines
Description: as §1

SR = assay: as above; format: cell-based; settings: Homo sapiens, Leukemia, 72 hours, read-out: growth inhibition of various human cancer cell lines
Description: as §1

T-47D = assay: as above; format: cell-based; settings: Homo sapiens, T47D, Breast, 72 hours, read-out: growth inhibition of various human cancer cell lines
Description: as §1

TK-10 = assay: as above; format: cell-based; settings: Homo sapiens, Renal, 72 hours, read-out: growth inhibition of various human cancer cell lines
Description: as §1

U251 = assay: as above; format: cell-based; settings: Homo sapiens, U-251, CNS, 72 hours, read-out: growth inhibition of various human cancer cell lines
Description: as §1

UO-31 = assay: as above; format: cell-based; settings: Homo sapiens, Renal, 72 hours, read-out: growth inhibition of various human cancer cell lines
Description: as §1

siHa = assay: as above; format: cell-based; settings: Homo sapiens, Cervical, 72 hours, read-out: growth inhibition of various human cancer cell lines
Description: as §1

HL60 [2] = assay: Leukemia cell growth inhibition, CellTiter-Glo (Example 1); format: cell-based, human; settings: HL60 cells, 4 μM
Description: (§2) Various human leukemia cells were grown to the logarithmic growth phase and seeded into 24-well plates. […] Treated cells were further incubated for 72 hours and then were examined for cell proliferation. Cell proliferation was determined using the CellTiter-Glo Luminescence Cell Viability assay (Promega Corporation, Madison, Wis.) according to the manufacturer's protocol. The calculated inhibition rate was determined with the following formula: Inhibition rate (%)=(1−Luminescence of experimental group/Luminescence of control group)×100. IC50 is the calculated concentration of a compound needed to inhibit half of the maximum cell growth (equivalent to cell growth in control group) based on the corresponding dose-response curve under the described experimental conditions.

Nalm-6 [3] = assay: as above; format: cell-based, human; settings: Nalm-6 cells, 4 μM
Description: as §2

REH = assay: as above; format: cell-based, human; settings: REH cells, 4 μM
Description: as §2

MV4-11 cells = assay: Subcutaneous MV4-11 leukemia tumor growth in NOD/SCID mice (Example 5); format: in vivo; settings: 100 mg/kg p.o. × 27 days
Description: Female Nonobese Diabetic/Severe Combined Immunodeficiency (NOD/SCID) mice that were 4-6 weeks old were used in the experiment. The mice were fed under specific pathogen free (SPF) conditions. Food and water were available to the mice at will. A suspension of 1×10^7 cells per mouse B-myelomonocytic leukemia MV4-11 cells (0.2 mL) in logarithmic phase were inoculated subcutaneously into the right back of the NOD/SCID nude mice.
The general conditions of the mice and the growth of the transplanted tumor were monitored. […] The control group received an intraperitoneal (IP) injection of 0.2 mL of solvent (20% DMSO, 80% of 20% w/v (2-hydroxypropyl)-β-cyclodextrin made in PBS). […] The high dosage group received an intraperitoneal injection of 50 mg/kg/day of YT30 (0.2 mL in volume) suspended in solvent (20% DMSO, 80% of 20% w/v (2-hydroxypropyl)-β-cyclodextrin made in PBS), while the low dosage group received IP injection of 25 mg/kg/day YT30 (0.2 mL in volume). Frequency of the administration was once per day and the experiment lasted 27 days after treatment started.
The body weights of the mice were recorded prior to the start of treatment and twice every week thereafter. Each mouse of every group was monitored daily for any other symptoms of side effects including change in behavior, activity or posture, areas of redness and swelling, and food and water withdrawal. Caliper measurements of the longest perpendicular tumor diameters were performed every 2 days to estimate the tumor volume; the following formula: 4π/3×(width/2)^2×(length/2) was used to calculate the three-dimensional volume of an ellipse. The tumor inhibition rate was calculated according to tumor volume: Tumor inhibition rate by size (%)=(Tumor volume of the control group−Tumor volume of the treated group)/Tumor volume of the control group×100. The mice were euthanized on the next day after the final injection and the subcutaneous tumor nodules were taken out intact and weighed. The tumor inhibition rate was calculated again according to tumor weight: Tumor inhibition rate by weight (%)=(Tumor weight of the control group−Tumor weight of the treated group)/Tumor weight of the control group×100).

K562 cells = assay: Subcutaneous K562 (CML) tumor growth in SCID mice (Example 6); format: in vivo; settings: Imatinib 100 mg/kg p.o. × 16 days, SCID mice, K562 tumor
Description: Male Severe Combined Immunodeficiency (SCID) mice that were 4-6 weeks old were used in the experiment. The mice were fed under specific pathogen free (SPF) conditions. Food and water were available to the mice at will. A suspension of 8×10^6 chronic myelogenous leukemia K562 cells (0.2 mL) was inoculated subcutaneously into the right back of the SCID mice.
The general conditions of the mice and the growth of the transplanted tumor were monitored. […] The control group received an intraperitoneal injection (IP) of 0.2 mL solvent (20% DMSO, 80% of 20% w/v (2-hydroxypropyl)-β-cyclodextrin made in PBS). […] The YT30 treated groups received either intraperitoneal injection of 50 mg/kg/day of YT30 (0.2 mL in volume) suspended in solvent (20% DMSO, 80% of 20% w/v (2-hydroxypropyl)-β-cyclodextrin made in PBS) or oral gavage of 90 mg/kg/day YT30 in solvent (Cremophor RH40:TW80:PEG400 (2:1:1)). Frequency of the administration was once per day and the experiment lasted 16 days after initiation of the treatment.
The body weights of the mice were recorded prior to the start of treatment and twice every week thereafter. Each mouse of every group was monitored daily for any other symptoms of side effects including change in behavior, activity or posture, areas of redness and swelling, and food and water withdrawal. Caliper measurements of the longest perpendicular tumor diameters were performed every 2 days to estimate the tumor volume; the following formula: 4π/3×(width/2)^2×(length/2) was used to calculate the three-dimensional volume of an ellipse. The tumor inhibition rate was calculated according to tumor volume: Tumor inhibition rate by size (%)=(Tumor volume of the control group−Tumor volume of the treated group)/Tumor volume of the control group×100. The SCID mice were euthanized 2 hours after the final injection and the subcutaneous tumor nodules were taken out intact and weighed. The tumor inhibition rate was calculated again according to tumor weight: Tumor inhibition rate by weight (%)=(Tumor weight of the control group−Tumor weight of the treated group)/Tumor weight of the control group×100.

Nalm-6 [4] = assay: cells; settings: Homo sapiens, NALM-6, 72 h, read-out: 72 hr growth inhibition (%)
Description: as §2
Growth inhibition experiments were performed as previously described.

Row | SMILES | IC50 (A498) [µM] | IC50 (A549) [µM] | IC50 (BT-549) [µM] | IC50 (CCRF-CEM) [µM] | IC50 (Caski) [µM] | IC50 (HL60 [1]) [µM] | IC50 (HS 578T) [µM] | IC50 (HeLa) [µM] | IC50 (K562) [µM] | IC50 (MCF7) [µM] | IC50 (MDA-MB-435) [µM] | IC50 (MDA-MB-468) [µM] | IC50 (MDA-MB231) [µM] | IC50 (MOLT-4) [µM] | IC50 (OVCAR-3) [µM] | IC50 (OVCAR-4) [µM] | IC50 (OVCAR-5) [µM] | IC50 (SF-268) [µM] | IC50 (SF-295) [µM] | IC50 (SF-539) [µM] | further results
1 | Nc1ccccc1NC(=O)CCCCCCNC(=O)c1cc2ccccc2[nH]1 [YT128] | 7.46 | 12.8 | 9.14 | 4.24 | 10.9 | 5.86 | 8.39 | 6.58 | 5.03 | 8.52 | 9.74 | 11.2 | 6.75 | 5.08 | 6.91 | 13.6 | 6.87 | 13.4 | 8.61 | 7.61 | IC50 (786-0): 9.47 µM; IC50 (NCI/ADR-RES): 14.6 µM; IC50 (SN12C): 7.11 µM; IC50 (SNB-19): 13.8 µM; IC50 (SR): 5.96 µM; IC50 (T-47D): 12.6 µM; IC50 (TK-10): 12.1 µM; IC50 (U251): 5 µM; IC50 (UO-31): 6.58 µM; IC50 (siHa): 9.7 µM
2 | Nc1ccccc1NC(=O)CCCCCNC(=O)c1cc2ccccc2[nH]1 [YT86] | 9.55 | 10.9 | 13.5 | 3.17 | 11.3 | 4.81 | 8.85 | 6.74 | 5.64 | 5.86 | 8.31 | 7.04 | 5.81 | 3.09 | 7.2 | 14.3 | 5.99 | 14.9 | 7.41 | 7.76 | IC50 (SN12C): 8 µM; IC50 (SNB-19): 14.2 µM; IC50 (SR): 6.4 µM; IC50 (T-47D): 12.5 µM; IC50 (TK-10): 17.2 µM; IC50 (U251): 4.47 µM; IC50 (UO-31): 7.51 µM; IC50 (siHa): 8.78 µM
3 | Nc1ccccc1NC(=O)Cc1cccc(CC(=O)Nc2ccccc2N)c1 [YT19] |  |  |  |  |  |  |  |  |  |  |  |  |  |  |  |  |  |  |  |  | Growth inhibition (FIG. 1) (HL60 [2]): failed to inhibit cell growth; Growth inhibition (FIG. 1) (Nalm-6 [3]): failed to inhibit cell growth; Growth inhibition (FIG. 1) (REH): failed to inhibit cell growth
4 | Cc1ccc(NC(=O)c2ccc(CN3CCN(C)CC3)cc2)cc1Nc1nccc(-c2cccnc2)n1 [Imatinib, imatinib, reference compound] |  |  |  |  |  |  |  |  |  |  |  |  |  |  |  |  |  |  |  |  | Average body weight (g, x ± s) End point (MV4-11 cells): 22.06 ± 1.74 g; Body weight change (%) (MV4-11 cells): −1.0%; Tumor growth Inhibition by size (%) (MV4-11 cells): 52.5%; Tumor growth Inhibition by weight (%) (MV4-11 cells): 41.7%; Tumor size (mm^3) (MV4-11 cells): 1040.51 ± 422.38 mm^3; Tumor weight (g, x ± s) (MV4-11 cells): 1.29 ± 0.42 g; Body weight change (K562 cells): −3.26%; Tumor growth inhibition by size (K562 cells): 43.97%; Tumor growth inhibition by weight (K562 cells): 27.91%; Average body weight, End point (K562 cells; end point, x ± s): 18.37 ± 0.54 g; Average body weight, Initial (K562 cells; initial (before treatment), x ± s): 18.99 ± 1.23 g; Tumor size (K562 cells; x ± s): 1744.05 ± 1049.95 mm^3; inhibition at 5 µM (Nalm-6 [4]): 0%; inhibition at 10 µM (Nalm-6 [4]): 44%
